The test system of one series is H82 (SCLC). The series can be described thus: xenograft tumor model. The conditions noted are these: mouse, in vivo.
For a further series, the target named is T1, MSK1 (Homo sapiens, UniProt O75582).
T1 construct: purchased Upstate
The series can be described thus: Upstate kinase Profiler counter-screening. The series is classed as biochemical. (In general: Counterscreens check selectivity or assay interference.)

The test system of the next series is AMPK. Nature of the series: Upstate kinase Profiler counter-screening. The series is classed as biochemical.
The next series addresses T2, Fes (Homo sapiens, UniProt P07332).
T2 construct: purchased Upstate
The series can be described thus: Upstate kinase Profiler counter-screening. The series is classed as biochemical.

A further series deals with T3, cSRC (Homo sapiens, UniProt P12931).
T3 construct: purchased Upstate
Nature of the series: Upstate kinase Profiler counter-screening. The series is classed as biochemical.

A short description of the next series: in vivo. The conditions noted are these: nude, mouse, ip.
Another series concerns the target T4, CDK6/cyclinD3 (Homo sapiens, UniProt Q00534).
T4 construct: purchased Upstate
Nature of the series: Upstate kinase Profiler counter-screening. The class given is biochemical.

In a further series the target is T5, PKCε (Homo sapiens, UniProt Q02156).
T5 construct: purchased Upstate
T5 sequence (Q02156 1-737): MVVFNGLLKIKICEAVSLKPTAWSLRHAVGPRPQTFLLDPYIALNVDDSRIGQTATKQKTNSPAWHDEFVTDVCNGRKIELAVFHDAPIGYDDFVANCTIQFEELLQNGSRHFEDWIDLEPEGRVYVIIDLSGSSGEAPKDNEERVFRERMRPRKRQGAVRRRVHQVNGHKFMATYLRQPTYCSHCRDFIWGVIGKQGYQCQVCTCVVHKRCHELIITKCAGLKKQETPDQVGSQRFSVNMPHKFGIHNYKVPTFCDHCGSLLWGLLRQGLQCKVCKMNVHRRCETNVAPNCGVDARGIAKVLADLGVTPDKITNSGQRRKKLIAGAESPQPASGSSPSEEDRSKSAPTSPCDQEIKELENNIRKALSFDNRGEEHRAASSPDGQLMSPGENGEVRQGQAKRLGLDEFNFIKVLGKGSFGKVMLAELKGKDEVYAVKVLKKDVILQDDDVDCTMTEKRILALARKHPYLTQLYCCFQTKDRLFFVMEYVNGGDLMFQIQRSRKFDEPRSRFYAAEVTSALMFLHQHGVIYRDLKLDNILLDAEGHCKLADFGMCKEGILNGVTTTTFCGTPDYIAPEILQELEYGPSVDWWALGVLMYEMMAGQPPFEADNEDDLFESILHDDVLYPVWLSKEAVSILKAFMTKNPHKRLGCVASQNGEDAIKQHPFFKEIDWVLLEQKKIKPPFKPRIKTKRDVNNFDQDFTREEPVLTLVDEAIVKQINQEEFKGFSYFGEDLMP
Nature of the series: Upstate kinase Profiler counter-screening. The class given is biochemical.

The next series concerns the target T6, Lyn (Homo sapiens, UniProt P07948).
T6 construct: purchased Upstate
Nature of the series: Upstate kinase Profiler counter-screening. The series is classed as biochemical.

The next series has as its system CaMKII. The class given is biochemical.
A further series addresses T7, PKCα (Homo sapiens, UniProt P17252).
T7 construct: purchased Upstate
The series can be described thus: Upstate kinase Profiler counter-screening. The class given is biochemical.

The subject of series [1] is A2780 cells. The series can be described thus: in-cell inhibition of thymidine incorporation. The conditions noted are these: Homo sapiens. The series is classed as cell-based. A general note: Uptake of a labelled nucleoside into DNA is a usual measure of proliferation.
Another series addresses T8, YES (Homo sapiens, UniProt P07947).
T8 construct: purchased Upstate
The series can be described thus: Upstate kinase Profiler counter-screening. The series is classed as biochemical.

A further series deals with T9, Rsk2 (Homo sapiens, UniProt P51812).
T9 construct: purchased Upstate
T9 sequence (P51812 whole entry, species assumed): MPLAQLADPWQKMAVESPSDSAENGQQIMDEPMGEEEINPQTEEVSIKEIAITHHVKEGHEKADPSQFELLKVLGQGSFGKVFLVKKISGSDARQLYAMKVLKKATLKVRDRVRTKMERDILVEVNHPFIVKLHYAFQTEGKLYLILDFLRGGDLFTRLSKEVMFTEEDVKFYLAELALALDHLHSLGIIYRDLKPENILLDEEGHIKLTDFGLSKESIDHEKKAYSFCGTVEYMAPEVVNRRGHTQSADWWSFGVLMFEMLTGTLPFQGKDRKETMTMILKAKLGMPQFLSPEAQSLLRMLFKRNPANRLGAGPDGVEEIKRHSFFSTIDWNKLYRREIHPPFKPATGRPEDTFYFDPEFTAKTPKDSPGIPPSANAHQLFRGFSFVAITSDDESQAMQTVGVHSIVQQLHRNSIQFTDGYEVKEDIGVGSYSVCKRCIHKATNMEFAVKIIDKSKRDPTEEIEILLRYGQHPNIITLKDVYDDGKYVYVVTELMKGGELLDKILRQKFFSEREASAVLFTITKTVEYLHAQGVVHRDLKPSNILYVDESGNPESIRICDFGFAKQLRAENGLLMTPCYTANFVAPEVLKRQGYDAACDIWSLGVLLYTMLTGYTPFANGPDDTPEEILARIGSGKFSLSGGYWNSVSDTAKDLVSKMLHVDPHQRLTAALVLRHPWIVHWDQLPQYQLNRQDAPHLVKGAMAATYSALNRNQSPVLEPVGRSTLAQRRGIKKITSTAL
The series can be described thus: Upstate kinase Profiler counter-screening. The class given is biochemical.

Another series addresses T10, PKCθ (Homo sapiens, UniProt Q04759).
T10 construct: purchased Upstate
The series can be described thus: Upstate kinase Profiler counter-screening. The series is classed as biochemical.

The next series deals with T11, CDK7/cyclinH/MAT1 (Homo sapiens, UniProt P50613).
T11 construct: purchased Upstate
T11 sequence (P50613 whole entry, species assumed): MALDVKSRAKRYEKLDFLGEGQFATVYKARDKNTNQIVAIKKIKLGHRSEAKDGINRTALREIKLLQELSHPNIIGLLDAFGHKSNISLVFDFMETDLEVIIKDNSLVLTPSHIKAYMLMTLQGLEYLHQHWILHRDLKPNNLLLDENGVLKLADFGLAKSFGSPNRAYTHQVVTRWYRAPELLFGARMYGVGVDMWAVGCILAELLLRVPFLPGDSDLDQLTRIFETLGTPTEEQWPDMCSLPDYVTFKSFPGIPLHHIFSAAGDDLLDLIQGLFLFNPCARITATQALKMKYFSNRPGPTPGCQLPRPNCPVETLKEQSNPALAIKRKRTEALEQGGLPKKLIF
T11 sequence (P51946 whole entry partner, species assumed): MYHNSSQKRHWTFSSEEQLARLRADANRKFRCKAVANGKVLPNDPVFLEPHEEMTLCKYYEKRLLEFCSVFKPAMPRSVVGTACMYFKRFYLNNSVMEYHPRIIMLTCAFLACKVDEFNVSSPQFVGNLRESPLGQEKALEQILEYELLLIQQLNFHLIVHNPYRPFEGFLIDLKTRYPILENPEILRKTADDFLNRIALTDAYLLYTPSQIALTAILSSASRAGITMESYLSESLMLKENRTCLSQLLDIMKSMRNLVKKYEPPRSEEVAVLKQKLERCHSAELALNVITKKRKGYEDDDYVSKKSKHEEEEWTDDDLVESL
T11 sequence (P51948 whole entry partner, species assumed): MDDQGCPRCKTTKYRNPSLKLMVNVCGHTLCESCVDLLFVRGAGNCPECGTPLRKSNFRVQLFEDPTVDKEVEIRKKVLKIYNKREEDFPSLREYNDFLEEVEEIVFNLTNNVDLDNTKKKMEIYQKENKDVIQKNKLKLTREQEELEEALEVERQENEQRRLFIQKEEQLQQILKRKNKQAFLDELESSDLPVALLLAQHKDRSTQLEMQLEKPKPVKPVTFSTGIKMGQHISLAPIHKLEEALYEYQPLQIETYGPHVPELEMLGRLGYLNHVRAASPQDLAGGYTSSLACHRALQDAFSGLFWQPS
Nature of the series: Upstate kinase Profiler counter-screening. The class given is biochemical.

A further series deals with T12, PKCβII (Homo sapiens, UniProt P05771).
T12 construct: purchased Upstate
T12 sequence (P05771 1-673 isoform P05771-2): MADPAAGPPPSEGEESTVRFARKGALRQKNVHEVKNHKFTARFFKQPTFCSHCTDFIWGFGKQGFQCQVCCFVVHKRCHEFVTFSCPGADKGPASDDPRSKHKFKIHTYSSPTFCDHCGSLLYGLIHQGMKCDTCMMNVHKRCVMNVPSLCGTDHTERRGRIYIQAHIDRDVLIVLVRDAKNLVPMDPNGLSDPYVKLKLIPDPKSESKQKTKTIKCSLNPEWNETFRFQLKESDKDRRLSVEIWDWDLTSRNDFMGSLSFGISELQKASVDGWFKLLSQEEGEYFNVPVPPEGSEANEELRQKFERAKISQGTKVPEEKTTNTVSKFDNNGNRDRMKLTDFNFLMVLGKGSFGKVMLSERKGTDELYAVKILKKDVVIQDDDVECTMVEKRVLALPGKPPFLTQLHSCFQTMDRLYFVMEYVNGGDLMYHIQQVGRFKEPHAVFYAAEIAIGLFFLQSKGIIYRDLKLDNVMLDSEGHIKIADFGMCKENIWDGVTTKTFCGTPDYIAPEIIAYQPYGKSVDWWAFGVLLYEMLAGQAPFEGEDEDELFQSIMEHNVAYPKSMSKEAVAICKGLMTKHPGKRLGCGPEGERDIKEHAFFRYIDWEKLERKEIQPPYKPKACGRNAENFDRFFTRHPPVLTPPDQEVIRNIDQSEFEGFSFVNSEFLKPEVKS
Nature of the series: Upstate kinase Profiler counter-screening. The class given is biochemical.

The test system of series [2] is A2780 ovarian carcinoma xenografts. Nature of the series: A2780 xenograft ovarian cancer model. The class given is in vivo, nude mice.
Series [3] concerns A2780 cells. The note with it: 16 hours exposure.
Description: Accumulation of the p85 PARP product was also monitored to assess activation of caspases and correlate inhibition of CDKs with the onset of apoptosis.
A further series deals with A549 NSCLC xenografts. The conditions noted are these: mouse, in vivo.

Like-named read-outs stand apart in the source and are kept apart here.

T1 sequence (O75582 whole entry, species assumed): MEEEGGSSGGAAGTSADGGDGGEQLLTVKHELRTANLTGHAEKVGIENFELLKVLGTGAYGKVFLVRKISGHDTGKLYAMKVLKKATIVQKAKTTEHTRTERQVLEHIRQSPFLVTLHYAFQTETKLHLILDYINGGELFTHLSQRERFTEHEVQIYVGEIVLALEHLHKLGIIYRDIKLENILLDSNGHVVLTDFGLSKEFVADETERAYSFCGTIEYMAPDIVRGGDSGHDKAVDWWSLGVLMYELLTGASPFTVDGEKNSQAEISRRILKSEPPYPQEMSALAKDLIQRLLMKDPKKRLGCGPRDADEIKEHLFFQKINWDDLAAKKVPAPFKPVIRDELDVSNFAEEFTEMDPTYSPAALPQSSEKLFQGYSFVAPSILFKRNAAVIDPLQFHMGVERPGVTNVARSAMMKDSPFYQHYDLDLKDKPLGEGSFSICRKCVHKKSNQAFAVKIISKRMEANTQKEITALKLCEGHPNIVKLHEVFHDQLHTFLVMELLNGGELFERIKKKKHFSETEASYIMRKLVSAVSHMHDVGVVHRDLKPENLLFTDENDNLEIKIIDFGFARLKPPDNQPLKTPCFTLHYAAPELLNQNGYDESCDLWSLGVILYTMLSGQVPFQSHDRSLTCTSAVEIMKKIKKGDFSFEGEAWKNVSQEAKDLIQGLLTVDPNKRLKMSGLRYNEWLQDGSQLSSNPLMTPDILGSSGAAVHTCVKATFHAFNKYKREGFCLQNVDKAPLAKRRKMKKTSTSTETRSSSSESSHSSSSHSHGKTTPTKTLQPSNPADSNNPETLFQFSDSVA
T4 sequence (Q00534 whole entry, species assumed): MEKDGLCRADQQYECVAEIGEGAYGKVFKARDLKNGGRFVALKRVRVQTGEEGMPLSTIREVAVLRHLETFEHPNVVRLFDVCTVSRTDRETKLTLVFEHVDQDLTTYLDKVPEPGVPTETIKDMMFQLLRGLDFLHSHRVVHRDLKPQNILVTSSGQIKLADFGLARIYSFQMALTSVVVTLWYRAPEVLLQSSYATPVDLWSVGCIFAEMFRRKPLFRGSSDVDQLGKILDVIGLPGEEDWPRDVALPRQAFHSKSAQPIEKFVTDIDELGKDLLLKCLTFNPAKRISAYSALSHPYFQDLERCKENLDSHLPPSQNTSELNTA
T4 sequence (P30281 whole entry partner, species assumed): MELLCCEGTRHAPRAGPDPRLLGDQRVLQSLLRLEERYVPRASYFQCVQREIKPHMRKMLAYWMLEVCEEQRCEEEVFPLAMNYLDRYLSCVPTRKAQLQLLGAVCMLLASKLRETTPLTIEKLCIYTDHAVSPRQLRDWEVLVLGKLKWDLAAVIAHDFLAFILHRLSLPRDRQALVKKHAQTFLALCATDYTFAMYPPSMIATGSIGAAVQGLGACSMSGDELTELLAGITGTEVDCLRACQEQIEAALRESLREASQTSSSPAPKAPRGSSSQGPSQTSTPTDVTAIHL
T10 sequence (Q04759 whole entry): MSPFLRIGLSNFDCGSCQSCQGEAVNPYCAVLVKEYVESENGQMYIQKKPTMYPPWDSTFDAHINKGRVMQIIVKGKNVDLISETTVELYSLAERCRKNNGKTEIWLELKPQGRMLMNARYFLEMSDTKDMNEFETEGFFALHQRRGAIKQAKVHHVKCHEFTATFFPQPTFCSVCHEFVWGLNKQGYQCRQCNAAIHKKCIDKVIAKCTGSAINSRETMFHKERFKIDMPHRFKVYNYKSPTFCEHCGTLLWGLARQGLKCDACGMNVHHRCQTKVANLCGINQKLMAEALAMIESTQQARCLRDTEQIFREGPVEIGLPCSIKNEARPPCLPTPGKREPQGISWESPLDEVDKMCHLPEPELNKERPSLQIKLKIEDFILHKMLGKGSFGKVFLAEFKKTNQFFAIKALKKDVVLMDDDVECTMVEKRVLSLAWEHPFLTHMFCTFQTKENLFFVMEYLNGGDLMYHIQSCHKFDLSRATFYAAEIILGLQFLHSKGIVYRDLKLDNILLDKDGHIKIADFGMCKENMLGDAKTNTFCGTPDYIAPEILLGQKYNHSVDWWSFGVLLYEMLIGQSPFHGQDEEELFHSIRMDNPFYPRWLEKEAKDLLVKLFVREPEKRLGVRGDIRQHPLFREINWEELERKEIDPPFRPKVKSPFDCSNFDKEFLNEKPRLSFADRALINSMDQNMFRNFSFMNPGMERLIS

With `N.N.O=C([O-])C1(C(=O)[O-])CCC1.[Pt+2]` [carboplatin, reference compound], the “% inhibition observed with benchmark cytotoxic agent” value in the series with H82 (SCLC) is reported as 40%.

One may read the remaining activity as what remains of the control signal, in per cent. Read a high remaining activity as much activity left. In general, IC50 refers to the concentration needed to halve the response being measured. The low end stands for greater potency in that assay, the high end for weaker potency in that assay. Take `CN1CC[C@H](c2c(O)cc(O)c3c(=O)cc(-c4ccccc4Cl)oc23)[C@H](O)C1` [Formula III, Flavopiridol, reference compound]: the remaining activity at 1 µM on MSK1 (at 1 μM) turned out to be 74%; on Fes (at 1 μM), 44%; at cSRC (at 1 μM), 3%; on CDK6/cyclinD3 (at 1 μM), 25%; on PKCε (at 1 μM), 45%; on Lyn (at 1 μM), 73%. The remaining activity at 1 µM stood at 66% at PKCα (at 1 μM); 68% on YES (at 1 μM); 65% at Rsk2 (at 1 μM); 23% on PKCθ (at 1 μM); 18% on CDK7/cyclinH/MAT1 (at 1 μM); 75% at PKCβII (at 1 μM). Also, the remaining activity at 10 µM at MSK1 (at 10 μM) was 37%; on Fes (at 10 μM) it was 13%; at cSRC (at 10 μM), 4%; on CDK6/cyclinD3 (at 10 μM) it was 6%; at PKCε (at 10 μM) it was 9%; at Lyn (at 10 μM) it was 18%. The remaining activity at 10 µM at PKCα (at 10 μM) came out at 20%; on YES (at 10 μM), 40%; at Rsk2 (at 10 μM) it was 18%; on PKCθ (at 10 μM), 5%; on CDK7/cyclinH/MAT1 (at 10 μM), 6%; on PKCβII (at 10 μM), 26%. The “% remaining activity” value with AMPK (at 1 μM) is 67%; with AMPK (at 10 μM) it was 20%; with CaMKII (at 1 μM), 44%; in the series with CaMKII (at 10 μM), 30%. Besides, the MTD at 7 days in the series “in vivo” was under 10 mg/kg. For the same compound, inhibition in the series on A2780 cells [1] was half-maximal at 0.07 µM (IC50). The compound also came in with an MED in [2] (once per day IP for 7 days, dose inducing at least 50% inhibition of tumor growth) of 10 mg/kg. For the same compound, the “concentration required to induce detectable effects on phospho-Ser 807/811 levels” value in the series with A2780 cells [3] is given as “about 1 micromolar”.

Regarding `CC(=O)O[C@H]1C(=O)[C@@]2(C)[C@H]([C@H](OC(=O)c3ccccc3)[C@]3(O)C[C@H](OC(=O)[C@H](O)[C@@H](NC(=O)c4ccccc4)c4ccccc4)C(C)=C1C3(C)C)[C@]1(OC(C)=O)CO[C@@H]1C[C@@H]2O` [paclitaxel, reference compound], the “% inhibition observed with benchmark cytotoxic agent” value in the series on A549 NSCLC xenografts is listed as 0%. Further, in series [2] (20 mg/kg IP twice weekly, ten day period), the tumor growth inhibited was 63%.

The values are drawn from US20100286038A1, “FORMULATION CONTAINING CYCLIN-DEPENDENT KINASE INHIBITING COMPOUND AND METHOD OF TREATING TUMORS USING THE SAME” (priority 2007, published 2010).
